In BindingDB's records for patent US12291519 (Idorsia Pharmaceuticals, 2025):

How the values were obtained:
Galectin-3 = Galectin-3 (Homo sapiens, UniProt P17931); test: Biological Assay
Procedure: (§1) The inhibitory activity of compounds is determined in competitive binding assays. […] Finally, 25 μL/well of ABTS substrate is added.

Galectin-1 = Galectin-1 (Homo sapiens, UniProt P09382); test: Biological Assay
Procedure: as §1

Sequence of Galectin-1 (P09382 whole entry): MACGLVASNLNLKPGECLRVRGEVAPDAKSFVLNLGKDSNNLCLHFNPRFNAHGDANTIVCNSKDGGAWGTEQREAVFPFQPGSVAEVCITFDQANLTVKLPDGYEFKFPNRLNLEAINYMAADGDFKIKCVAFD
Sequence of Galectin-3 (P17931 whole entry): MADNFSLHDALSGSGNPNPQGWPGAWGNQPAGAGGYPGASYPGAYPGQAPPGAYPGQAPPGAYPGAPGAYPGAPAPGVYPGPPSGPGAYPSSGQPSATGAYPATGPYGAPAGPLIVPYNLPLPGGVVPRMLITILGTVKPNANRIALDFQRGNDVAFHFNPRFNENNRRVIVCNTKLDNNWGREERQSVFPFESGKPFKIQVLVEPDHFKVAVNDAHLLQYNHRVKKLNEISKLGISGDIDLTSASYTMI

| SMILES | IC50 (Galectin-3) | IC50 (Galectin-1) |
| --- | --- | --- |
| Cc1nc(CN(C(=O)[C@@H]2O[C@H](CO)[C@H](O)[C@H](n3cc(-c4cc(F)c(F)c(F)c4)nn3)[C@H]2O)[C@H]2CCCC[C@@H]2O)c[nH]1 [US12291519, Example 14] | 564 nM | 40600 nM |
| Cn1cnc(CN(C(=O)[C@@H]2O[C@H](CO)[C@H](O)[C@H](n3cc(-c4cc(F)c(F)c(F)c4)nn3)[C@H]2O)[C@H]2CCCC[C@@H]2O)c1 [US12291519, Example 19] | 403 nM | 37600 nM |
| Cn1ccc(CN(C(=O)[C@@H]2O[C@H](CO)[C@H](O)[C@H](n3cc(-c4cc(F)c(F)c(F)c4)nn3)[C@H]2O)[C@H]2CCCC[C@@H]2O)n1 [US12291519, Example 24] | 294 nM | 25900 nM |
| O=C([C@@H]1O[C@H](CO)[C@H](O)[C@H](n2cc(-c3cc(F)c(Cl)c(F)c3)nn2)[C@H]1O)N(Cc1ccccc1C(F)(F)F)[C@H]1CCCC[C@@H]1O [US12291519, Example 67] | 42 nM | 610 nM |
| CO[C@@H]1[C@@H](n2cc(-c3cccc(F)c3)nn2)[C@@H](O)[C@@H](CO)O[C@H]1C(=O)N(c1cc(Cl)cc(Cl)c1)[C@H]1CCCC[C@@H]1O [US12291519, Example 72] | 31 nM | 58 nM |
| CO[C@@H]1[C@@H](n2cc(-c3cccc(F)c3)nn2)[C@@H](O)[C@@H](CO)O[C@H]1C(=O)N(c1cc(Br)cc(C#N)c1)[C@H]1CCCC[C@@H]1O [US12291519, Example 77] | 37 nM | 140 nM |
| CO[C@@H]1[C@@H](n2cc(-c3cc(F)cc(F)c3)nn2)[C@@H](O)[C@@H](CO)O[C@H]1C(=O)N(c1cc(Cl)cc(Cl)c1)[C@H]1CCCC[C@@H]1O [US12291519, Example 78] | 26 nM | 192 nM |
| CO[C@@H]1[C@@H](n2cc(-c3cc(F)c(F)c(F)c3)nn2)[C@@H](O)[C@@H](CO)O[C@H]1C(=O)N(c1ccc(Cl)c(Cl)c1)[C@H]1CCCC[C@@H]1O [US12291519, Example 98] | 33 nM | 169 nM |
| CO[C@@H]1[C@@H](n2cc(-c3cc(F)c(F)c(F)c3)nn2)[C@@H](O)[C@@H](CO)O[C@H]1C(=O)N(c1cc(Br)cc(C#N)c1)[C@H]1CCCC[C@@H]1O [US12291519, Example 112] | 8 nM | 150 nM |
| CO[C@@H]1[C@@H](n2cc(-c3cc(F)cc(Cl)c3)nn2)[C@@H](O)[C@@H](CO)O[C@H]1C(=O)N(c1cc(Cl)cc(C#N)c1)[C@H]1CCCC[C@@H]1O [US12291519, Example 133] | 22 nM | 184 nM |
| CO[C@@H]1[C@@H](n2cc(-c3cc(F)c(Cl)c(F)c3)nn2)[C@@H](O)[C@@H](CO)O[C@H]1C(=O)N(c1cc(Cl)cc(Cl)c1)[C@H]1CCCC[C@@H]1O [US12291519, Example 156] | 14 nM | 1380 nM |
| CO[C@@H]1[C@@H](n2cc(-c3cc(F)c(Cl)c(F)c3)nn2)[C@@H](O)[C@@H](CO)O[C@H]1C(=O)N(c1cc(Cl)cc(C#N)c1)[C@H]1CCCC[C@@H]1O [US12291519, Example 157] | 19 nM | 709 nM |
| CO[C@@H]1[C@@H](n2cc(-c3cc(F)c(Cl)c(Cl)c3)nn2)[C@@H](O)[C@@H](CO)O[C@H]1C(=O)N(c1cc(Cl)cc(C#N)c1)[C@H]1CCCC[C@@H]1O [US12291519, Example 169] | 14 nM | 333 nM |
| CO[C@@H]1[C@@H](n2cc(-c3ccc(C(F)(F)F)c(F)c3)nn2)[C@@H](O)[C@@H](CO)O[C@H]1C(=O)N(c1cc(Cl)cc(Cl)c1)[C@H]1CCCC[C@@H]1O [US12291519, Example 180] | 11 nM | 1200 nM |
| CO[C@@H]1[C@@H](n2cc(-c3cc(F)c(Cl)cc3F)nn2)[C@@H](O)[C@@H](CO)O[C@H]1C(=O)N(c1cc(Cl)cc(C#N)c1)[C@H]1CCCC[C@@H]1O [US12291519, Example 182] | 35 nM | 267 nM |
| COc1cc(-c2cn([C@H]3[C@@H](O)[C@@H](CO)O[C@@H](C(=O)N(c4cc(Cl)cc(Cl)c4)[C@H]4CCCC[C@@H]4O)[C@@H]3OC)nn2)cc(F)c1F [US12291519, Example 183] | 9 nM | 516 nM |
| COc1cc(-c2cn([C@H]3[C@@H](O)[C@@H](CO)O[C@@H](C(=O)N(c4cc(Cl)cc(C#N)c4)[C@H]4CCCC[C@@H]4O)[C@@H]3OC)nn2)ccc1Cl [US12291519, Example 184] | 29 nM | 282 nM |
| COc1cc(C#N)cc(N(C(=O)[C@@H]2O[C@H](CO)[C@H](O)[C@H](n3cc(-c4ccc(Cl)c(Cl)c4)nn3)[C@H]2OC)[C@H]2CCCC[C@@H]2O)c1 [US12291519, Example 188] | 44 nM | 1120 nM |
| O=C([C@@H]1O[C@H](CO)[C@H](O)C(n2cc(-c3cc(F)c(F)c(F)c3)nn2)[C@H]1OCCO)N(c1cc(Cl)cc(Cl)c1)[C@H]1CCCC[C@@H]1O (stereo partly drawn) [US12291519, Example 196] | 21 nM | 161 nM |
